Source: US20240324596A1, “SUBSTITUTED TOLYL FUNGICIDES” (FMC CORPORATION, priority 2023, published 2024)

tested on: Puccinia recondita f. sp. tritici; assay: Test B: preventive spray on wheat seedlings, wheat leaf rust disease rating; format: in vivo; details: 192 h, 100 = 100% disease control, 0 = no control
Source text: (§1) General protocol for preparing test suspensions for Tests A-F: the test compounds were first dissolved in acetone in an amount equal to 3% of the final volume and then suspended at the desired concentration (in ppm) in acetone and purified water (50/50 mix by volume) containing 250 ppm of the surfactant PEG400 (polyhydric alcohol esters). The resulting test suspensions were then used in Tests A-F.
The test solution was sprayed to the point of run-off on wheat seedlings. The following day the seedlings were inoculated with a spore suspension of Puccinia recondita f. sp. tritici (the causal agent of wheat leaf rust) and incubated in a saturated atmosphere at 20° C. for 24 h, and then moved to a growth chamber at 20° C. for 7 days, after which time disease ratings were made.
(§2) A rating of 100 indicates 100% disease control and a rating of 0 indicates no disease control (relative to the controls). A dash (-) indicates the compound was not tested.

Structure (SMILES) | pest or weed control at 10 ppm [%]
COC(=O)NCc1cc(-c2ncn(-c3c(F)cc(Cl)cc3F)n2)ccc1C [Compound 105] | 100

tested on: Phakopsora pachyrhizi; assay: Test D: preventive spray on soybean seedlings, Asian soybean rust disease rating; format: in vivo; details: 216 h, 100 = 100% disease control, 0 = no control
Source text: as §1
The test solution was sprayed to the point of run-off on soybean seedlings. The following day the seedlings were inoculated with a spore suspension of Phakopsora pachyrhizi (the causal agent of Asian soybean rust) and incubated in a saturated atmosphere at 22° C. for 24 h and then moved to a growth chamber at 22° C. for 8 days, after which time visual disease ratings were made.
as §2

Structure (SMILES) | pest or weed control at 10 ppm [%]
COC(=O)NCc1cc(-c2ncn(-c3c(F)cc(Cl)cc3F)n2)ccc1C [Compound 105] | 92

tested on: not given; assay: not given; details: not given

melting point [°C] | Structure (SMILES)
168 to 171 | COC(=O)NCc1cc(-c2ccn(-c3c(F)cc(N)cc3F)n2)ccc1C [Compound 5, methyl N-[[5-[1-(4-amino-2,6-difluorophenyl)-1H-pyrazol-3-yl]-2-methyl-phenyl]methyl]carbamate]
138 to 139 | COC(=O)NCc1cc(-c2ccn(-c3c(F)cc(Br)cc3F)n2)ccc1C [Compound 7, methyl N-[[5-[1-(4-bromo-2,6-difluorophenyl)-1H-pyrazol-3-yl]-2-methyl-phenyl]methyl]carbamate]
178 to 180 | COC(=O)NCc1cc(-c2ccn(-c3c(F)cc(O)cc3F)n2)ccc1C [Compound 10, methyl N-[[5-[1-(2,6-difluoro-4-hydroxyphenyl)-1H-pyrazol-3-yl]-2-methylphenyl]methyl]carbamate]
133 to 134 | COC(=O)NCc1cc(-c2ccn(-c3c(F)cc(OC(C)C)cc3F)n2)ccc1C [Compound 14, methyl N-[[5-[1-[2,6-difluoro-4-(1-methylethoxy)phenyl]-1H-pyrazol-3-yl]-2-methylphenyl]methyl]carbamate]

Second part, the molecule before the results:

Structure (SMILES) | melting point [°C]
COC(=O)NCc1cc(-c2ccn(-c3c(F)cc([N+](=O)[O-])cc3F)n2)ccc1C [Compound 1, methyl N-[[5-[1-(2,6-difluoro-4-nitrophenyl)-1H-pyrazol-3-yl]-2-methyl-phenyl]methyl]carbamate] | 131 to 134
COC(=O)NCc1cc(-c2ccn(-c3c(F)cc(C=O)cc3F)n2)ccc1C [Compound 67, methyl N-[[5-[1-(2,6-difluoro-4-formylphenyl)-1H-pyrazol-3-yl]-2-methyl-phenyl]methyl]carbamate] | 156 to 160
COC(=O)NCc1cc(-c2ccn(-c3c(F)cc(C(=O)OC)cc3F)n2)ccc1C [Compound 70, methyl 3,5-difluoro-4-[3-[3-[[(methoxycarbonyl)amino]methyl]-4-methyl-phenyl]-1H-pyrazol-1-yl]benzoate] | 120 to 122
COC(=O)NCc1cc(-c2ccn(-c3c(F)cc(CO)cc3F)n2)ccc1C [Compound 71, methyl N-[[5-[1-[2,6-difluoro-4-(hydroxymethyl)phenyl]-1H-pyrazol-3-yl]-2-methylphenyl]methyl]carbamate] | 183 to 184
COC(=O)NCc1cc(-c2ncn(-c3c(F)cc(Cl)cc3F)n2)ccc1C [Compound 105] | 166 to 170
COC(=O)NCc1cc(-c2cnn(-c3c(F)cc(N)cc3F)n2)ccc1C [Compound 115, methyl N-[[5-[2-(4-amino-2,6-difluorophenyl)-2H-1,2,3-triazol-4-yl]-2-methylphenyl]methyl]carbamate] | 144 to 148
COC(=O)NCc1cc(-c2cnn(-c3c(F)cc(Cl)cc3F)n2)ccc1C [Compound 117, methyl N-[[5-[2-(4-chloro-2,6-difluorophenyl)-2H-1,2,3-triazol-4-yl]-2-methylphenyl]methyl]carbamate] | 108 to 112
COC(=O)NCc1cc(-c2cnn(-c3c(F)cc([N+](=O)[O-])cc3F)n2)ccc1C [Compound 118, methyl N-[[5-[2-(2,6-difluoro-4-nitrophenyl)-2H-1,2,3-triazol-4-yl]-2-methyl-phenyl]methyl]carbamate] | 152 to 156
COC(=O)NCc1cc(-c2cn(-c3c(F)cc([N+](=O)[O-])cc3F)nn2)ccc1C [Compound 132, methyl N-[[5-[1-(2,6-difluoro-4-nitrophenyl)-1H-1,2,3-triazol-4-yl]-2-methylphenyl]methyl]carbamate] | 174 to 178
